# US20240254118A1, “PRMT5 INHIBITORS AND USES THEREOF” (Gilead Sciences, Inc., priority 2022, published 2024)
# How the values were obtained:
# [1] = tested on: HCT116 MTAP-deleted cells; test: Cell viability assay (CellTiter-Glo, 7 days), HCT116 MTAP-deleted; settings: Homo sapiens, HCT-116, 168 h
# [2] = tested on: SDMA signal (PRMT5 inhibition) in HCT116 MTAP-deleted cells; test: Symmetric di-methyl arginine image-based high content screen assay (SDMA assay), HCT116 MTAP-deleted; format: cell-based; settings: SDMA assay; for EC50: Homo sapiens, HCT-116, 72 h, 3 days of treatment, cell line not given, taken as HCT116 MTAP-deleted, read-out: EC50 (SDMA assay)
# Summary of the method: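 HCT116 MTAP-deleted cells treated with compound until Day 3, then formalin-fixed, permeabilized and immunostained for SDMA, with DAPI nuclear counterstain. Imaged by high-content microscopy; SDMA read-out is mean Alexa 488 intensity per DAPI-defined cell, reflecting PRMT5 inhibition.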
# [3] = taken as HCT116 WT versus MTAP-deleted
# [4] = taken as HCT116 WT vs MTAP-deleted
SMILES,CC50 [1],EC50 [2],"EC50 selectivity (SDMA assay) [2, 3]","EC50 selectivity (SDMA assay) [2, 4]"
"CN(C(=O)C1CC1)N(Cc1cnc(C(F)(F)F)c(F)c1)C(=O)c1ccc2nc(N)c3cnn(C)c3c2c1 [Example 279, 4-amino-N′-(cyclopropanecarbonyl)-N-((5-fluoro-6-(trifluoromethyl)pyridin-3-yl)methyl)-N′,1-dimethyl-1H-pyrazolo[4,3-c]quinoline-8-carbohydrazide]",100 to 1000 nM,1 to 5 nM,494,
"CC(=O)N(C)N(Cc1cc(F)c(F)cc1Cl)C(=O)c1ccc2nc(N)c3cnn(C)c3c2c1 [Example 450, N′-acetyl-4-amino-N-(2-chloro-4,5-difluorobenzyl)-N′,1-dimethyl-1H-pyrazolo[4,3-c]quinoline-8-carbohydrazide]",< 100 nM,< 1 nM,,394
"Cc1cc(CN(C(=O)c2ccc3nc(N)c4cnn(C)c4c3c2)N(C)C(=O)C2CC2)c(F)cc1-c1cnn(C(F)F)c1 [Example 318, 4-amino-N′-(cyclopropanecarbonyl)-N-(4-(1-(difluoromethyl)-1H-pyrazol-4-yl)-2-fluoro-5-methylbenzyl)-N′,1-dimethyl-1H-pyrazolo[4,3-c]quinoline-8-carbohydrazide]",< 100 nM,< 1 nM,130,
"CN(C(=O)N1CC2CC2C1)N(Cc1ccc(C(F)(F)F)cn1)C(=O)c1ccc2nc(N)c3cnn(C)c3c2c1 (stereo not drawn) [Example 127, 4-amino-N′-(3-azabicyclo[3.1.0]hexane-3-carbonyl)-N′,1-dimethyl-N-((5-(trifluoromethyl)pyridin-2-yl)methyl)-1H-pyrazolo[4,3-c]quinoline-8-carbohydrazide]",< 100 nM,1 to 5 nM,228,
"CC(=O)N(C)N(Cc1ccc(C(F)(F)F)cc1F)C(=O)c1ccc2nc(N)c3cnn(C)c3c2c1 [Example 39, N′-acetyl-4-amino-N-[[2-fluoro-4-(trifluoromethyl)phenyl]methyl]-N′,1-dimethyl-pyrazolo[4,3-c]quinoline-8-carbohydrazide]",< 100 nM,< 1 nM,25,
"Cn1ncc2c(N)nc3ccc(C(=O)N(Cc4cn5ccccc5n4)N4Cc5ccccc5C4=O)cc3c21 [Example 139, 4-amino-N-(imidazo[1,2-a]pyridin-2-ylmethyl)-1-methyl-N-(1-oxoisoindolin-2-yl)pyrazolo[4,3-c]quinoline-8-carboxamide]",< 100 nM,> 5 nM,20,
"Cc1cc(CN(C(=O)c2ccc3nc(N)c4cnn(C)c4c3c2)N(C)C(=O)C2CC2)ncc1Cl [Example 267, 4-amino-N-((5-chloro-4-methylpyridin-2-yl)methyl)-N′-(cyclopropanecarbonyl)-N′,1-dimethyl-1H-pyrazolo[4,3-c]quinoline-8-carbohydrazide]",< 100 nM,1 to 5 nM,223,
"CN(C(=O)C12CC(C1)C2)N(Cc1ccc(Cl)cn1)C(=O)c1ccc2nc(N)c3cnn(C)c3c2c1 [Example 140, 4-amino-N′-(bicyclo[1.1.1]pentane-1-carbonyl)-N-((5-chloropyridin-2-yl)methyl)-N′,1-dimethyl-1H-pyrazolo[4,3-c]quinoline-8-carbohydrazide]",< 100 nM,< 1 nM,456,
"CC(=O)N(C)N(Cc1ccc(OC(F)F)cc1Cl)C(=O)c1ccc2nc(N)c3cnn(C)c3c2c1 [Example 447, N′-acetyl-4-amino-N-(2-chloro-4-(difluoromethoxy)benzyl)-N′,1-dimethyl-1H-pyrazolo[4,3-c]quinoline-8-carbohydrazide]",< 100 nM,< 1 nM,,49
"CN(C(=O)C1CC1)N(Cc1ccc(-c2cnn(C(F)F)c2)cc1F)C(=O)c1ccc2nc(N)c3cnn(C)c3c2c1 [Example 238, 4-amino-N′-(cyclopropanecarbonyl)-N-(4-(1-(difluoromethyl)-1H-pyrazol-4-yl)-2-fluorobenzyl)-N′,1-dimethyl-1H-pyrazolo[4,3-c]quinoline-8-carbohydrazide]",< 100 nM,< 1 nM,77,
"Cn1ncc2c(N)nc3cc(F)c(C(=O)N(Cc4ccc(C(F)(F)F)cn4)N4C[C@H]5C[C@@H]4CO5)cc3c21 [Example 300, 4-amino-N-((1R,4R)-2-oxa-5-azabicyclo[2.2.1]heptan-5-yl)-7-fluoro-1-methyl-N-((5-(trifluoromethyl)pyridin-2-yl)methyl)-1H-pyrazolo[4,3-c]quinoline-8-carboxamide]",< 100 nM,< 1 nM,24,
"CN(c1ncccn1)N(Cc1cn2cc(Cl)ccc2n1)C(=O)c1ccc2nc(N)c3cnn(C)c3c2c1 [Example 129, 4-amino-N-[(6-chloroimidazo[1,2-a]pyridin-2-yl)methyl]-N′,1-dimethyl-N′-pyrimidin-2-yl-pyrazolo[4,3-c]quinoline-8-carbohydrazide]",< 100 nM,< 1 nM,11,
"CC(=O)N(C)N(Cc1ccc(C(F)(F)F)cn1)C(=O)c1ccc2nc(N)c3cnccc3c2c1 [Example 72, N′-acetyl-5-amino-N′-methyl-N-((5-(trifluoromethyl)pyridin-2-yl)methyl)benzo[c][2,7]naphthyridine-9-carbohydrazide]",100 to 1000 nM,1 to 5 nM,142,
"CC(=O)N(C)N(Cc1ccc2oc(C)nc2c1)C(=O)c1ccc2nc(N)c3cnn(C)c3c2c1 [Example 334, N′-acetyl-4-amino-N′,1-dimethyl-N-((2-methylbenzo[d]oxazol-5-yl)methyl)-1H-pyrazolo[4,3-c]quinoline-8-carbohydrazide]",100 to 1000 nM,1 to 5 nM,178,
"CN(C1CC1)N(Cc1ccc(C(F)(F)F)cn1)C(=O)c1ccc2nc(N)c3cnn(C)c3c2c1 [Example 75, 4-amino-N′-cyclopropyl-N′,1-dimethyl-N-((5-(trifluoromethyl)pyridin-2-yl)methyl)-1H-pyrazolo[4,3-c]quinoline-8-carbohydrazide]",< 100 nM,< 1 nM,68,
"Cn1ncc2c(N)nc3ccc(C(=O)N(Cc4ccc(C(F)(F)F)cn4)N4CCCCC4=O)cc3c21 [Example 29, 4-amino-1-methyl-N-(2-oxo-1-piperidyl)-N-[[5-(trifluoromethyl)-2-pyridyl]methyl]pyrazolo[4,3-c]quinoline-8-carboxamide]",< 100 nM,< 1 nM,43,
"CN1CCN(N(Cc2ccc(C(F)(F)F)cn2)C(=O)c2ccc3nc(N)c4cnn(C)c4c3c2)CC1 [Example 58, 4-amino-1-methyl-N-(4-methylpiperazin-1-yl)-N-((5-(trifluoromethyl)pyridin-2-yl)methyl)-1H-pyrazolo[4,3-c]quinoline-8-carboxamide]",100 to 1000 nM,1 to 5 nM,126,
"Cn1ncc2c(N)nc3cc(F)c(C(=O)N(Cc4ccc(C(F)(F)F)nc4)N4CCCC4=O)cc3c21 [Example 57, 4-amino-7-fluoro-1-methyl-N-(2-oxopyrrolidin-1-yl)-N-((6-(trifluoromethyl)pyridin-3-yl)methyl)-1H-pyrazolo[4,3-c]quinoline-8-carboxamide]",< 100 nM,1 to 5 nM,108,
